US6610706B1, “Crystalline form of 6-hydroxy-3-(4-[2-(piperidin-1-yl)ethoxy]phenoxy)-2-(4-methoxyphenyl)benzo[b]thiophene hydrochloride” (Eli Lilly and Company, priority 1999, dated 2003)

Experiments:
Assay type in all cases: physicochemical
[1] = Aqueous solubility and dissolution rate comparison of crystal forms; details: comparison of the two forms
[2] = Stability of crystal forms stored at different relative humidities (XRD); details: entire relative humidity range (0-95% RH)
Protocol: XRD patterns were obtained for samples of F-I and F-III stored at different relative humidities (0, 22, 50, and 80%). There is a gradual shifting of the initial (0% RH) F-III peaks at about 13.8, 17.6, 18.0, 20.5 and 24.0° in 2θ as well as slight shifting of less intense peaks, as the relative humidity is increased. These observed changes in the XRD patterns of F-III indicate that the unit cell dimensions are changing, presumably to accommodate weakly held water molecules as the relative humidity is increased.
A similar experiment was carried out on F-I to determine whether varying the relative humidity would have a similar effect on its lattice (0, 25, 52, 73 and 95% RH). Very slight shifting of the 0% RH peaks at about 7.7, 18.3, 18.5, 20.5, 20.8° in 2θ is observed as the relative humidity is increased. […] The shifting of peaks in the XRD patterns of F-I is less dramatic than the peak shifts observed as F-III was exposed to different relative humidities.
XRD patterns were obtained on a Siemens D5000 X-ray powder diffractometer, equipped with a CuKα source (λ=1.54056 Å) and a Kevex solid-state detector, operating at 50 kV and 40 mA. Each sample was scanned between 4° and 35° in 2θ. Samples were allowed to equilibrate for at least 30 minutes at the desired temperature and/or relative humidity before data collection.

[3] = Stability at ambient temperature relative to arzoxifene prepared per '474; details: relative to arzoxifene produced by the procedures taught in '474
[4] = Hygroscopicity / moisture sorption isotherms (VTI vacuum moisture balance)
Protocol: Hygroscopicicity studies were performed on F-I and F-III. Upon initial exposure of the samples to approximately 5% RH, there was an immediate weight gain of 1.5% and 1.7% moisture for F-I and F-III, respectively, equivalent to approximately 0.5 mole of water. Both forms show a continuous sorption of moisture through the entire humidity range, which is likely due to incorporation of water molecules in the lattices. The moisture sorption profiles for F-I and F-III reveal that these forms are essentially non-stoichiometric hydrates. At ambient relative humidity (about 50% RH), F-I contains approximately 1.7% water, corresponding to 0.5 moles of water, while F-III has sorbed about 3.0% water which corresponds to about 0.85 moles of water. The bulk forms of F-I and F-III rapidly equilibrate with the atmosphere, so that the water content observed by analytical techniques is a reflection of the relative humidity at the time of data collection. Lot-to-lot differences observed in the DSC data likely results from the samples being hydrated to different extents due to different ambient storage conditions. Hygroscopicity measurements were made for F-I and F-III using the VTI method as follows. Each sample was dried under vacuum at 60° C. until no further weight loss was detected, at which time the sample chamber was brought to 0% relative humidity. Moisture sorption isotherms were obtained at 25° C. using a VTI vacuum moisture balance with the following conditions: sample size 10-15 mg, adsorption/desorption range 0-95% relative humidity, step interval 5%, sample interval 10 minutes.

- aqueous solubilities (F-I versus F-III) [1]: comparable
- dissolution rates (F-I versus F-III) [1]: comparable
- stability at ambient temperature [3]: more stable at ambient temperature
- water content at ambient relative humidity ([4]; about 50% RH): about 3.0%
- water content at ambient relative humidity, in moles of water ([4]; about 50% RH): about 0.85 moles
- water equivalent of the initial weight gain ([4]; approximately 5% RH): approximately 0.5 mole
- immediate weight gain (moisture) upon initial exposure ([4]; approximately 5% RH, 25° C., after vacuum drying at 60° C.): 1.7%
Compound: COc1ccc(-c2sc3cc(O)ccc3c2Oc2ccc(OCCN3CCCCC3)cc2)cc1.Cl [F-III, 6-hydroxy-3-(4-[2-(piperidin-1-yl)ethoxy]phenoxy)-2-(4-methoxyphenyl)benzo[b]thiophene hydrochloride]
- stability over relative humidity range [2]: stable over the entire relative humidity range
